Experimental data as given in patent US9028845B2, “Chimeric immunomodulatory compounds and methods of using the same-IV” (Dynavax Technologies Corporation, priority 2001, dated 2015).

Key:
CD19+ B cells = assay: Human B cell proliferation assay (3H-thymidine incorporation); conditions: purified human B cells, 5 μg/ml, 96 h
Method: Purified human B cells from 2 donors were stimulated with 5 μg/ml P-6 or CIC for 96 h. Proliferation was assessed by ^3H-thymidine incorporation.
A CIC is considered to induce “little” human B cell proliferation if B cell proliferation in the presence of the CIC is between greater than 15 to about 30% of P-6.
Human PBMCs were isolated from heparanized blood from two normal subjects. Some PBMCs were held in reserve while the remainder was incubated with CD19+ MACS beads (Miltenyi Biotec). These cells were then passed through a magnet, separating the CD19+ B cells through positive selection. […] B cells were then cultured at 1×10^5/200 μl/well in 96-well round-bottomed plates. In some cases, PBMCs were also cultured, but at 2×10^5/200 μl/well. Cells were stimulated in triplicate with 2 μg/ml polynucleotide or CIC. The culture period was 48 hours at 37° C. At the end of the culture period, the plates were pulsed with ^3H-thymidine, 1 μCi/well, and incubated for an additional 8 hours. Then the plates were harvested using standard liquid scintillation techniques and data was collected in counts per minutes (cpm).

human PBMCs = assay: Human PBMC cytokine response assay (IFN-γ and IFN-α in cell-free medium by ELISA), with or without cPLGA; assay type: cell-based; conditions: for IFN-α mean / IFN-γ mean: mean of donors

Substance: 5′-TCGATTT-3′-HEG-5′-TCGATTT-3′-HEG-5′-TCGATTT-3′ [Compound C-74]
- B cell proliferation (FIG. 11), in words (CD19+ B cells): induced moderate levels of B cell proliferation

Substance: HEG-5′-TCGTCG-3′-HEG-5′-ACGTTCG-3′-HEG-5′-AGATGAT-3′-TEG [Compound C-30]
- IFN-α (human PBMCs; Table 9, donor 28089): 134 pg/mL
- IFN-γ (human PBMCs; Table 9, donor 28089): 0 pg/mL
- IFN-α (human PBMCs; Table 9, donor 28090): 29 pg/mL
- IFN-γ (human PBMCs; Table 9, donor 28090): 6 pg/mL
- IFN-α (human PBMCs; Table 9, donor 28098): 52 pg/mL
- IFN-γ (human PBMCs; Table 9, donor 28098): 12 pg/mL
- IFN-α (human PBMCs; Table 9, donor 28099): 47 pg/mL
- IFN-γ (human PBMCs; Table 9, donor 28099): 20 pg/mL
- IFN-α mean (human PBMCs; Table 9): 65 pg/mL
- IFN-γ mean (human PBMCs; Table 9): 9 pg/mL

Substance: 5′-TCGTCGA-3′-HEG-5′-ACGTTCG-3′-HEG-5′-GGGGGG-3′ [Compound C-49]
- IFN-α (human PBMCs; Table 11, donor 28042): 30 pg/mL
- IFN-γ (human PBMCs; Table 11, donor 28042): 367 pg/mL
- IFN-α (human PBMCs; Table 11, donor 28043): 8 pg/mL
- IFN-γ (human PBMCs; Table 11, donor 28043): 433 pg/mL
- IFN-α (human PBMCs; Table 11, donor 28044): 100 pg/mL
- IFN-γ (human PBMCs; Table 11, donor 28044): 767 pg/mL
- IFN-α (human PBMCs; Table 11, donor 28045): 88 pg/mL
- IFN-γ (human PBMCs; Table 11, donor 28045): 353 pg/mL
- IFN-α mean (human PBMCs; Table 11): 57 pg/mL
- IFN-γ mean (human PBMCs; Table 11): 480 pg/mL

Substance: 5′-TGACTGTGAAGGTTAGAGATGA-3′ (SEQ ID NO: 136) (listed as DNA, chemistry not fully specified) [Compound P-8, reference compound]
- IFN-α (human PBMCs; Table 13, donor 28156): 16 pg/mL
- IFN-γ (human PBMCs; Table 13, donor 28156): 255 pg/mL
- IFN-α (human PBMCs; Table 13, donor 28157): 9 pg/mL
- IFN-γ (human PBMCs; Table 13, donor 28157): 20 pg/mL
- IFN-α (human PBMCs; Table 13, donor 28158): 24 pg/mL
- IFN-γ (human PBMCs; Table 13, donor 28158): 31 pg/mL
- IFN-α (human PBMCs; Table 13, donor 28159): 8 pg/mL
- IFN-γ (human PBMCs; Table 13, donor 28159): 31 pg/mL
- IFN-α mean (human PBMCs; Table 13): 14 pg/mL
- IFN-γ mean (human PBMCs; Table 13): 84 pg/mL
